This is an account of results in publication PMC10411625, “Rationally designed stapled peptides allosterically inhibit PTBP1–RNA-binding” (Chemical Science, 2023).

What is called Kd is the free concentration of one partner at which half of the binding sites on the other are occupied at equilibrium, for simple one-to-one binding. Higher therefore signals lower affinity.

Positions count from the first letter of the chain named. {FAM} = fluorescein (FAM) label

In series [1] the target is T1, PTBP1 RRM1 (MBP-RRM1, G41-A163) (Homo sapiens, UniProt P26599).
T1 construct: (G41-A163); His tag; made in house; host or cells: E. coli BL21 DE3 RIL
T1 sequence (P26599 41-163): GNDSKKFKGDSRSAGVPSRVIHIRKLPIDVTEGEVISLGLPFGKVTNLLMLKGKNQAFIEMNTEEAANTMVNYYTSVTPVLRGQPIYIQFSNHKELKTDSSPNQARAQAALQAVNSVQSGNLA
In words: Fluorescence polarization binding of FAM-RNA to PTBP1 RRM1. The following applies: FP, 5 nM FAM-labelled RNA, 20 mM sodium phosphate pH 8.0, 50 mM NaCl, 0.001% Tween20, 20 °C, 30 min. From the text:
(§1) To confirm the role of the α3-helix described by the Allain group we performed fluorescence polarization (FP) experiments with various PTBP1 protein constructs and two RNA sequences.[25] The first set of proteins contained either the single RRM1, RRM1 lacking the α3-helix (RRM1Δα3) or RRM1–L151G (Fig. 1A and C). The L151G mutation was previously described by the Allain group to break the fold of the helix and reduce RNA-binding 2.3 fold as measured by ITC.[25] As tracer in the FP experiments, we used a FAM-labelled short RNA (RNA-1) with a single PTBP1 binding site (UCUU) which can accommodate a single RRM (Fig. 1B). […] The L151G mutation reduced binding 3.6-fold which is somewhat higher than what was observed previously but in the same range. […] To see whether the effect of the helix was also present in larger constructs we measured the affinity of RRM1 and 2 combined (RRM12) as well as the RRM12–L151G mutant. […]
(§2) size exclusion chromatography (Superdex 75 16/60 or 26/60) with SEC buffer (50 mM Tris, 200 mM NaCl). Protein homogeneity was assessed by the size exclusion chromatogram and purity was checked by SDS-PAGE analysis to be >= 90%.
(§3) The gene encoding for SRSF1-RRM12 (1-195) was subcloned into pOPIN-His expression vector and expressed in E. coli BL21 (DE3). […]
(§4) Fluorescence polarization assay with PTBP1 […]

Series [2] has as its target T2, PTBP1 RRM1Δα3 (RRM1 lacking the α3-helix) (Homo sapiens, UniProt P26599).
T2 construct: (G41-S140); His tag (N); made in house; host or cells: E. coli BL21 DE3 RIL
Kind of series: Fluorescence polarization binding of FAM-RNA to PTBP1 RRM1Δα3. The following applies: FP, 5 nM FAM-labelled RNA, 20 mM sodium phosphate pH 8.0, 50 mM NaCl, 0.001% Tween20, 20 °C, 30 min.
Text: as §1, §2, §3, §4

Series [3] has as its target T3, PTBP1 RRM1-L151G (Homo sapiens, UniProt P26599, L151G).
T3 construct: (G41-A163,; His tag; made in house; host or cells: E. coli BL21 DE3 RIL
In words: Fluorescence polarization binding of FAM-RNA to PTBP1 RRM1-L151G.
Text: as §1, §2, §3, §4
(In general: Polarisation of emitted light reports the rotation of a fluorescent probe.)

Series [4] has as its target T4, PTBP1 RRM2 (MBP-RRM2, M177-D284) (Homo sapiens, UniProt P26599).
T4 construct: (M177- D284); His tag; made in house; host or cells: E. coli BL21 DE3 RIL
In words: Fluorescence polarization binding of FAM-RNA to PTBP1 RRM2. To be noted: FP, 5 nM FAM-labelled RNA, 20 mM sodium phosphate pH 8.0, 50 mM NaCl, 0.001% Tween20, 20 °C, 30 min.
Text: as §1, §2, §3, §4

For series [5], the target named is T5, PTBP1 RRM12 (P57-V265) (Homo sapiens, UniProt P26599).
T5 construct: (P57-V265); MBP (from pMAL vector); His tag; made in house; host or cells: E. coli BL21 DE3 RIL
T5 sequence (P26599 57-265): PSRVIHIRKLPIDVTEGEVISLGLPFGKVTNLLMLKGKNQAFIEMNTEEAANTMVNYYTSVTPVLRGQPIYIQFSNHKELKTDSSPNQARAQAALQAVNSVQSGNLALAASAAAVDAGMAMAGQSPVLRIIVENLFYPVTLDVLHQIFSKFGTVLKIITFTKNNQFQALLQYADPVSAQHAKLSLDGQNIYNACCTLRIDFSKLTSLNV
Kind of series: Fluorescence polarization binding of FAM-RNA to PTBP1 RRM12. To be noted: FP, 5 nM FAM-labelled RNA, 20 mM sodium phosphate pH 8.0, 50 mM NaCl, 0.001% Tween20, 20 °C, 30 min.
Text: as §1, §2, §3, §4

The target in series [6] is T6, PTBP1 RRM12-L151G (Homo sapiens, UniProt P26599, L151G).
T6 construct: (P57-V265); MBP (from pMAL vector); His tag; made in house; host or cells: E. coli BL21 DE3 RIL
T6 sequence (P26599 57-265 L151G): T5 sequence (P26599 57-265) with L95G
Kind of series: Fluorescence polarization binding of FAM-RNA to PTBP1 RRM12-L151G.
Text: as §1, §2, §3, §4

Setting [7] is: FP, 5 nM FAM-labelled RNA, 20 mM sodium phosphate pH 8.0, 50 mM NaCl, 0.001% Tween20, 20 °C, 30 min.

T3 sequence (P26599 41-163 L151G): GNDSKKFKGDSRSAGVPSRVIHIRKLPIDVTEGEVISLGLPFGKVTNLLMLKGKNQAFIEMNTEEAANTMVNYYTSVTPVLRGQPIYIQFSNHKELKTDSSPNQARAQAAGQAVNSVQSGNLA
T4 sequence (P26599 177-284): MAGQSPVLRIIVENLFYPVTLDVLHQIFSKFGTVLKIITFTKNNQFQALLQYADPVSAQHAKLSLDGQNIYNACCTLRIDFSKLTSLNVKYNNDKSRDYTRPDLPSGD

“RNA-2: FAM-AUUUUUCCAUCUUUGUAUC, sequence of microRNA miR-29b-2, two poly(U) motifs (RNA, 5' {FAM}, backbone not given here)”: the Kd in series [1] was determined as 0.09 ± 0.023 µM; in series [2], 6.45 ± 1.36 µM; in series [3] (setting [7]), 0.218 ± 0.011 µM; in series [4], 0.721 ± 0.308 µM; in series [5] it was 0.017 ± 0.002 µM; in series [6] (setting [7]) it was 0.042 ± 0.001 µM. Moreover, the “reduction of RNA affinity by L151G mutation, RRM1-L151G versus RRM1” value in series [3] (from FP KD values) was 2.4 fold. Besides, in series [6] (from FP KD values), the “reduction of RNA affinity by L151G mutation, RRM12-L151G versus RRM12” value came to 2.5 fold.
